Results reported in US11339130B1 (Blade Therapeutics, Inc., priority 2016, dated 2022).

How the values were obtained:
[1] = target: T1, Human Calpain 2/NS1 (Homo sapiens, UniProt P17655); assay: Calpain inhibition continuous fluorescence (FRET) assay, Human Calpain 2/NS1; type: biochemical; settings: read-out: Human Calpain 2/NS1 IC50
T1 sequence (P17655 1-700): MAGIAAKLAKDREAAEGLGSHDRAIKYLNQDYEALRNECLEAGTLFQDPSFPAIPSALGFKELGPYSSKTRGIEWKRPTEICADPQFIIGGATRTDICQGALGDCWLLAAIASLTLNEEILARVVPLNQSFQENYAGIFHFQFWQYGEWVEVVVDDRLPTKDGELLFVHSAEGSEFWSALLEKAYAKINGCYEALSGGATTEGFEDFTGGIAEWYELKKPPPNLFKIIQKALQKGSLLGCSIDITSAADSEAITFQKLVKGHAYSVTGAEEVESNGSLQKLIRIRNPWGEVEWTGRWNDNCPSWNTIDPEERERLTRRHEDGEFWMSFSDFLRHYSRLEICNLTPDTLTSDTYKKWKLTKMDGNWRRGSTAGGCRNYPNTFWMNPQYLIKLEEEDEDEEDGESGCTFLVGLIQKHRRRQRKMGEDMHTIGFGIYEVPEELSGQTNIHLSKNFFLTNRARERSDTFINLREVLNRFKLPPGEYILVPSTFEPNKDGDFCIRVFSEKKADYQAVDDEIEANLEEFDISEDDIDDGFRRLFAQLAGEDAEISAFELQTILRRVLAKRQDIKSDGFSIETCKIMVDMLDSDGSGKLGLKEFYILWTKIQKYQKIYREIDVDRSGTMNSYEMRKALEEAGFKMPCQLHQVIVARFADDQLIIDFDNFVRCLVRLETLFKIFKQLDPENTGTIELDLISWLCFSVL
T1 sequence (P04632 1-268 partner): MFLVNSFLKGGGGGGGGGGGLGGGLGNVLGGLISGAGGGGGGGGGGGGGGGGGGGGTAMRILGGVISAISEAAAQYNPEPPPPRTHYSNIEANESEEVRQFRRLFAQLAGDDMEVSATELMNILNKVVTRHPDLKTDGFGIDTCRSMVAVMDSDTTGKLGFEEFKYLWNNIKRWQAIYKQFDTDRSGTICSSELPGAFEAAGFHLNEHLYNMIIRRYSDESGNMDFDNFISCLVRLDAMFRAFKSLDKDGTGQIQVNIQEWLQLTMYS
Outline: (§1)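 Human calpains 1, 2 and 9 preincubated with inhibitor at 25 °C in 50 mM Tris pH 7.5, 100 mM NaCl, 1 mM DTT; reaction started with 5-FAM/QXL 520 FRET peptide plus CaCl2 for activation. Fluorescence (490/520 nm) followed 10 min; rates from 1-5 min slopes fitted to 4-parameter logistic for IC50.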

[2] = target: T2, Human Calpain 9/NS1 (Homo sapiens, UniProt O14815); assay: Calpain inhibition continuous fluorescence (FRET) assay, Human Calpain 9/NS1; type: biochemical; settings: read-out: Human Calpain 9/NS1 IC50
T2 sequence (O14815 1-690): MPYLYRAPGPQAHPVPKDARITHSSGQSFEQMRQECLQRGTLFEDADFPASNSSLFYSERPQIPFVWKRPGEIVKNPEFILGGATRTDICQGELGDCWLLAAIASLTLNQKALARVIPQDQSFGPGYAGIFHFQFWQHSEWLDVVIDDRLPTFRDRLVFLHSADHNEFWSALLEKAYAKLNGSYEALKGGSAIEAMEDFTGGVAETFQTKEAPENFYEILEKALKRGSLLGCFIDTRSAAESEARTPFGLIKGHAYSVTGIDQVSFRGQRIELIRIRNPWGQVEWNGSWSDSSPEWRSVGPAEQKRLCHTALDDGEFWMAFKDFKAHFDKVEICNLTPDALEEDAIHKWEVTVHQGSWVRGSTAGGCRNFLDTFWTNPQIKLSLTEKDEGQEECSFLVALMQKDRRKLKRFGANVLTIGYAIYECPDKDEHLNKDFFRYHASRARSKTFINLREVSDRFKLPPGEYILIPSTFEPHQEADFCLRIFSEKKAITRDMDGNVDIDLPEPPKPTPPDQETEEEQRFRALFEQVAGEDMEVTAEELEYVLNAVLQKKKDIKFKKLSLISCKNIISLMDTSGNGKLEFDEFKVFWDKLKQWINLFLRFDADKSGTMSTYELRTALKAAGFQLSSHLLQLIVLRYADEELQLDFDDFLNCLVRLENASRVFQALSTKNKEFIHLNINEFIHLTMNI
T2 sequence (P04632 1-268 partner): T1 sequence (P04632 1-268 partner)
Outline: as §1

[3] = target: T3, Human Calpain 1/NS1 (Homo sapiens, UniProt P07384); assay: Calpain inhibition continuous fluorescence (FRET) assay, Human Calpain 1/NS1; type: biochemical; settings: read-out: Human Calpain 1/NS1 IC50
T3 sequence (P07384 1-714): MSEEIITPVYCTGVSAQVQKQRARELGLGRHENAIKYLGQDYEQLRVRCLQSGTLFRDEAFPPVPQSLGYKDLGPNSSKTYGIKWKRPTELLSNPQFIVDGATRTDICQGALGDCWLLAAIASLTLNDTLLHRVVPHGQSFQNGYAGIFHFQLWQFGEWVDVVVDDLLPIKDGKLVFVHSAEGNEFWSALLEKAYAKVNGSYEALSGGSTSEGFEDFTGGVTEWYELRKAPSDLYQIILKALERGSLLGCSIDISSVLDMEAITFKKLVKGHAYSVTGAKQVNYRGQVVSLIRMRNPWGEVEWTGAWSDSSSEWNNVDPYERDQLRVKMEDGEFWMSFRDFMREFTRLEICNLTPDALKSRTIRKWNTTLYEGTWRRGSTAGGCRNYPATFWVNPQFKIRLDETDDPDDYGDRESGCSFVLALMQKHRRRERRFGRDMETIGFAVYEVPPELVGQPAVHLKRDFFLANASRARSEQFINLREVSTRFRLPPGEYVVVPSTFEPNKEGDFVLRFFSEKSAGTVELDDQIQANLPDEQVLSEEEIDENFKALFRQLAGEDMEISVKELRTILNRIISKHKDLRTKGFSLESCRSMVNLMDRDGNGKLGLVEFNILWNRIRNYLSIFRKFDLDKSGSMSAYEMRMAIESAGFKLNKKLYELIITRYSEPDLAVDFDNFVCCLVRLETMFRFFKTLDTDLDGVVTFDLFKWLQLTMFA
T3 sequence (P04632 1-268 partner): T1 sequence (P04632 1-268 partner)
Outline: as §1

[4] = test system: Calpain activity in SH-SY5Y cells (SBDP-150); assay: SH-SY5Y Spectrin western blot assay (SBDP-150 breakdown product, A23187-induced); type: cell-based; settings: Homo sapiens; SH-SY5Y cells, A23187-induced SBDP-150, western blot; read-out: SH-SY5Y Spectrin IC50
[5] = test system: Calpain activity in SH-SY5Y cells; assay: SH-SY5Y + AMC fluorescence assay (Suc-LLVY-AMC substrate); type: cell-based; settings: read-out: SH-SY5Y + AMC IC50

NC(=O)C(=O)C(Cc1c[nH]c2ccccc12)NC(=O)c1nsnc1-c1ccccc1 (centres unmarked) [Compound 532, N-(4-amino-1-(1H-indol-3-yl)-3,4-dioxobutan-2-yl)-4-phenyl-1,2,5-thiadiazole-3-carboxamide]
IC50 [1]: < 3 µM
IC50 [2]: < 3 µM
IC50 [3]: < 3 µM
IC50 [4]: < 10 µM
IC50 [5]: < 10 µM

NC(=O)C(=O)C(Cc1ccccc1)NC(=O)c1cn(C(F)F)nc1-c1cccc2c1OC(F)(F)O2 (centres unmarked) [Compound 546, N-(4-amino-3,4-dioxo-1-phenylbutan-2-yl)-3-(2,2-difluorobenzo[d][1,3]dioxol-4-yl)-1-(difluoromethyl)-1H-pyrazole-4-carboxamide]
IC50 [1]: < 3 µM
IC50 [2]: < 3 µM
IC50 [3]: < 3 µM
IC50 [4]: < 10 µM
IC50 [5]: < 10 µM

NC(=O)C(=O)C(Cc1ccccc1)NC(=O)c1cn(C(F)F)nc1-c1cccc2ccccc12 (centres unmarked) [Compound 547, N-(4-amino-3,4-dioxo-1-phenylbutan-2-yl)-1-(difluoromethyl)-3-(naphthalen-1-yl)-1H-pyrazole-4-carboxamide]
IC50 [1]: < 3 µM
IC50 [2]: < 3 µM
IC50 [3]: < 3 µM
IC50 [4]: < 10 µM
IC50 [5]: < 10 µM

Cn1cc(C(=O)NC(Cc2ccccc2)C(=O)C(N)=O)c(-c2ccc3c(c2)OC(F)(F)O3)n1 (centres unmarked) [Compound 548, N-(4-amino-3,4-dioxo-1-phenylbutan-2-yl)-3-(2,2-difluorobenzo[d][1,3]dioxol-5-yl)-1-methyl-1H-pyrazole-4-carboxamide]
IC50 [1]: < 3 µM
IC50 [2]: < 3 µM
IC50 [3]: < 3 µM
IC50 [4]: > 25 µM
IC50 [5]: > 25 µM

Cc1ccc(F)c(-c2oncc2C(=O)NC(Cc2ccccc2)C(=O)C(N)=O)c1 (centres unmarked) [Compound 549, N-(4-amino-3,4-dioxo-1-phenylbutan-2-yl)-5-(2-fluoro-5-methylphenyl)isoxazole-4-carboxamide]
IC50 [1]: < 3 µM
IC50 [2]: < 3 µM
IC50 [3]: < 3 µM
IC50 [4]: > 25 µM
IC50 [5]: < 10 µM

NC(=O)C(=O)C(Cc1ccccc1)NC(=O)c1cn(C(F)F)nc1-c1ccccn1 (centres unmarked) [Compound 550, N-(4-amino-3,4-dioxo-1-phenylbutan-2-yl)-1-(difluoromethyl)-3-(pyridin-2-yl)-1H-pyrazole-4-carboxamide]
IC50 [1]: < 3 µM
IC50 [2]: < 3 µM
IC50 [3]: < 3 µM
IC50 [4]: > 25 µM
IC50 [5]: 10 to 25 µM

NC(=O)C(=O)C(Cc1ccccc1)NC(=O)c1cn(C(F)F)nc1-c1ccc2ccccc2c1 (centres unmarked) [Compound 551, N-(4-amino-3,4-dioxo-1-phenylbutan-2-yl)-1-(difluoromethyl)-3-(naphthalen-2-yl)-1H-pyrazole-4-carboxamide]
IC50 [1]: < 3 µM
IC50 [2]: < 3 µM
IC50 [3]: < 3 µM
IC50 [4]: 10 to 25 µM
IC50 [5]: > 25 µM

NC(=O)C(=O)C(Cc1ccccc1)NC(=O)c1cn(C(F)F)nc1-c1cc(F)ccc1F (centres unmarked) [Compound 552, N-(4-amino-3,4-dioxo-1-phenylbutan-2-yl)-1-(difluoromethyl)-3-(2,5-difluorophenyl)-1H-pyrazole-4-carboxamide]
IC50 [1]: < 3 µM
IC50 [2]: < 3 µM
IC50 [3]: < 3 µM
IC50 [4]: < 10 µM
IC50 [5]: < 10 µM

Cn1cc(C(=O)N[C@H](C(=O)C(N)=O)C2Cc3ccccc3C2)c(-c2ccccc2F)n1 [Compound 553, (S)—N-(3-amino-1-(2,3-dihydro-1H-inden-2-yl)-2,3-dioxopropyl)-3-(2-fluorophenyl)-1-methyl-1H-pyrazole-4-c arboxamide]
IC50 [1]: < 3 µM
IC50 [2]: < 3 µM
IC50 [3]: < 3 µM
IC50 [4]: > 25 µM
IC50 [5]: < 10 µM

Cc1cc(F)cc(-c2nn(C(F)F)cc2C(=O)NC(Cc2ccccc2)C(=O)C(N)=O)c1 (centres unmarked) [Compound 554, N-(4-amino-3,4-dioxo-1-phenylbutan-2-yl)-1-(difluoromethyl)-3-(3-fluoro-5-methylphenyl)-1H-pyrazole-4-carboxamide]
IC50 [1]: < 3 µM
IC50 [2]: < 3 µM
IC50 [3]: < 3 µM
IC50 [4]: < 10 µM
IC50 [5]: < 10 µM

NC(=O)C(=O)C(Cc1ccccc1)NC(=O)c1cn(C(F)F)nc1-c1cccc2c1OCCO2 (centres unmarked) [Compound 555]
IC50 [1]: < 3 µM
IC50 [2]: < 3 µM
IC50 [3]: < 3 µM
IC50 [4]: > 25 µM
IC50 [5]: < 10 µM

NC(=O)C(=O)C(Cc1ccccc1)NC(=O)c1cnoc1-c1ccccc1F (centres unmarked) [Compound 556, N-(4-amino-3,4-dioxo-1-phenylbutan-2-yl)-5-(2-fluorophenyl)isoxazole-4-carboxamide]
IC50 [1]: < 3 µM
IC50 [2]: < 3 µM
IC50 [3]: < 3 µM
IC50 [4]: < 10 µM
IC50 [5]: < 10 µM

Cc1ccccc1-c1oncc1C(=O)NC(Cc1ccccc1)C(=O)C(N)=O (centres unmarked) [Compound 557, N-(4-amino-3,4-dioxo-1-phenylbutan-2-yl)-5-(o-tolyl)isoxazole-4-carboxamide]
IC50 [1]: < 3 µM
IC50 [2]: < 3 µM
IC50 [3]: < 3 µM
IC50 [4]: > 25 µM
IC50 [5]: < 10 µM

Cc1ccc(F)cc1-c1oncc1C(=O)NC(Cc1ccccc1)C(=O)C(N)=O (centres unmarked) [Compound 558, N-(4-amino-3,4-dioxo-1-phenylbutan-2-yl)-5-(5-fluoro-2-methylphenyl)isoxazole-4-carboxamide]
IC50 [1]: < 3 µM
IC50 [2]: < 3 µM
IC50 [3]: < 3 µM
IC50 [4]: 10 to 25 µM
IC50 [5]: < 10 µM

NC(=O)C(=O)C(Cc1ccccc1)NC(=O)c1cnoc1-c1cccc(F)c1 (centres unmarked) [Compound 559, N-(4-amino-3,4-dioxo-1-phenylbutan-2-yl)-5-(3-fluorophenyl)isoxazole-4-carboxamide]
IC50 [1]: < 3 µM
IC50 [2]: < 3 µM
IC50 [3]: < 3 µM
IC50 [4]: 10 to 25 µM
IC50 [5]: > 25 µM

Cc1cccc(-c2oncc2C(=O)NC(Cc2ccccc2)C(=O)C(N)=O)c1 (centres unmarked) [Compound 560, N-(4-amino-3,4-dioxo-1-phenylbutan-2-yl)-5-(m-tolyl)isoxazole-4-carboxamide]
IC50 [1]: < 3 µM
IC50 [2]: < 3 µM
IC50 [3]: < 3 µM
IC50 [4]: 10 to 25 µM
IC50 [5]: > 25 µM
